Results taken from patent publication US20200163938A1, “PHARMACEUTICAL COMPOSITION COMPRISING IRON CHELATOR EXHIBITING ANTITUMOR ACTIVITY, ANTIBACTERIAL ACTIVITY AND/OR ANTIVIRUS ACTIVITY, AND HAVING REDUCED SIDE EFFECTS” (priority 2017, published 2020).
Where “and” joins values, the source holds several entries; their conditions need not be identical. Identical values can stand only once. Entries after “also recorded” stand apart in the source; their conditions may differ. Like-named read-outs stand apart in the source and are kept apart here.

How the values were obtained:
[1] = system: P. gingivalis Pg W83; assay: Antibacterial activity, turbidity and ATP assay; type: cell-based, Porphyromonas gingivalis; conditions: anaerobic culture 37° C., 18 hours, OD595 nm; FIG. 8
Procedure: A bacterial strain of one of periodontopathic bacteria, gram-negative bacillus, P. gingivalis, used herein was Pg W83. With the use of a liquid medium prepared by adding the chelating agent of each test group to a modified GAM bouillon medium, anaerobic culture (Anaeropack.anaerobic) was performed at 37° C. for 18 hours. Turbidity was found from optical density (OD595 nm). Results were as depicted in FIG. 8.

[2] = type: in vivo; parameters: NEFA: unit not given here; conditions: for Body weight: rats
Procedure: To a negative control group (saline administration; n=6), the same amount of saline was administered. On day 14 after administration, determining life or death, measurement of body weight, physical items (respiration, body temperature, behavior, etc.) were observed. Moreover, blood samples were taken from each group, and the right kidneys and the livers were removed. Results were as depicted in FIG. 5A to 5C and Tables 4 to 9.

[3] = system: subcutaneously-transplanted HCT116 cells; type: in vivo, nude mice (BALB/c nu/nu); conditions: mouse, in vivo, 200 mg/kg/day
Procedure: Next, the antitumor effects of the chelating agents of test groups 6 and 10 on HCT116-cell subcutaneous transplantation model mice, into which HCT116 cells had been subcutaneously transplanted, were confirmed. Mice prepared herein were nude mice (BALB/c nu/nu, 6 weeks old: Clea Japan Inc.). HCT116 cells were adjusted at 3×10^6/mouse, and then mixed with Matrigel (BD Biosciences) at 1:1. The thus obtained mixture was administered to mice, thereby preparing subcutaneous tumors. The dosage was 200 mg/kg/day (5 times/week administration). […] Tissue sections of HCT116 cells subcutaneously transplanted into the test group 10 administration group were prepared, and then hematoxylin-eosin (HE) staining, and TUNEL staining were performed by the above-mentioned method.

[4] = system: HSC-2 cells; assay: Apoptosis induction, TUNEL staining; type: cell-based, human; conditions: 100 μg/mL, 48 hours, FIG. 11A
Procedure: (§1) Furthermore, the apoptosis-inducing effects of the chelating agents of test groups 6 and 10 on tumors were confirmed. First, 100 μg/mL of the chelating agent of test group 6 or 50 μg/mL of the chelating agent of test group 10 was added to HSC-2 cells in a culture solution. After 48 hours of reaction, TUNEL Assay was carried out. Specifically, apoptosis induction was evaluated by the TUNEL staining method using a MK500 in situ Apoptosis Detection Kit (Takara Bio Inc.).

[5] = system: C. albicans (ATCC10231; Candida albicans); assay: Minimum growth inhibition concentration (MIC); type: cell-based; conditions: 24 hours
Procedure: (§2) The dilution series of the chelating agent of each test group was prepared according to a standard method, microbes were inoculated, and then 24 hours later, the microbial growth was confirmed, thereby determining the minimum growth inhibition concentration of the chelating agent of each test group. Microbes used herein were S. aureus (ATCC6538; Staphylococcus aureus), P. aeruginosa (ATCC9027; Pseudomonas aeruginosa) and C. albicans (ATCC10231; Candida albicans). Drugs used herein were oxacillin, vancomycin and deferasirox as positive controls.

[6] = system: S. aureus (ATCC6538; Staphylococcus aureus); assay: Minimum growth inhibition concentration (MIC); type: cell-based
Procedure: as §2

[7] = system: P. aeruginosa (ATCC9027; Pseudomonas aeruginosa); assay: Minimum growth inhibition concentration (MIC); type: cell-based
Procedure: as §2

[8] = system: A549 cells; assay: Apoptosis induction, TUNEL staining; type: cell-based, human; conditions: 100 μg/mL, 48 hours, FIG. 11C
Procedure: as §1
Further, the apoptosis-inducing effects of the chelating agent of test group 6 or 10 on A549 cells were confirmed. 100 μg/mL of the chelating agent of test group 6 was added and 50 μg/mL of the chelating agent of test group 10 was added to the cells. After 48 hours of reaction, TUNEL staining was carried out similarly to the above.

[9] = system: human oral squamous cell carcinoma HSC-2; assay: Antitumor effects, cell viability (XTT method); type: cell-based; conditions: FIG. 10
Procedure: (§3) The antitumor effects of the chelating agents of test groups 1 to 10 on each of human lung cancer cell line A549, human liver cancer cell line PLC, and human colon adenocarcinoma cell line HCT116 were confirmed. A549 cells or PLC cells were seeded at 3000 cells/well, and HCT116 cells were seeded at 6000 cells/well. After 24 hours, the fetal bovine serum (FBS) concentration was changed from 10% to 1%, each compound of the test groups 1 to 10 was introduced into medium. Cell viability was confirmed after 48 hours by the Trypan blue method, or, cell viability was confirmed after 48 hours by performing medium exchange and then after 24 hours by performing the XTT method. Deferoxamine mesylate (Desferal (Trademark)) was used as a positive control. Results are as depicted in FIGS. 1A, 1B, 2 and 3.
(§4) Moreover, similarly to the above experiment on antitumor effects, the antitumor effects of the chelating agent of test group 6 or 10 on each of human breast cancer cell line MCF-7 and human oral squamous cell carcinoma HSC-2 were confirmed.

[10] = system: human breast cancer cell line MCF-7; assay: Antitumor effects, cell viability (XTT method); type: cell-based; conditions: FIG. 9
Procedure: as §3, §4

[11] = system: S. mutans (ATCC25175); assay: Antibacterial activity, turbidity and ATP assay; type: cell-based, Streptococcus mutans; conditions: aerobic culture 37° C., 18 hours; FIGS. 6A, 6B
Procedure: First, the antibacterial activity of a dental caries-causing bacterium, S. mutans (ATCC25175) was examined. With the use of a liquid medium prepared by adding a yeast extract and the chelating agent of each test group to TSB medium, aerobic culture was performed at 37° C. for 18 hours, and then turbidity was found from optical density (OD570 or 595 nm). Cell activity was measured using an ATP assay kit (Kikkoman Corporation). Results were as depicted in FIGS. 6A and 6B.

[12] = rat blood, oral 200 mg/kg, day 14
[13] = rat blood, oral 1000 mg/kg, day 14, 1000 mg/kg

In the case of `Cl.OCC1OC(O)C(NCc2ccc(O)c(O)c2O)C(O)C1O` (centres unmarked) [Test group 6], the “antimicrobial effects on P. gingivalis (turbidity)” value [1] is reported as “exhibited antimicrobial effects”, the ALP [2, 12] is reported as 745 IU/L and the ALT [2, 12] is reported as 34 IU/L. It also gave an AST [2, 12] of 58 IU/L, a BUN [2, 12] of 27.2 mg/dL and a CRE [2, 12] of 0.37 mg/dL. The Ca [2, 12] was 10.2 mg/dL, the GLU [2, 12] was 212 mg/dL and the K [2, 12] was 3.6 mEQ/L. It also gave an LD [2, 12] of 45 IU/L, an NEFA [2, 12] of 58 and a Na [2, 12] of 141 mEQ/L. For the same compound, the T-Bil [2, 12] was 0.03 mg/dL, the TP [2, 12] was 5.1 g/dL and the ALP [2, 13] was 437 IU/L and 471 IU/L. For the same compound, the BUN [2, 13] was 22.2 mg/dL and 28.9 mg/dL, the CRE [2, 13] was 0.31 mg/dL and 0.48 mg/dL and the Ca [2, 13] was 10.2 mg/dL and 11.0 mg/dL. The GLU [2, 13] was 159 mg/dL and 199 mg/dL, the K [2, 13] was 4.5 mEQ/L and 4.1 mEQ/L and the Na [2, 13] was 144 mEQ/L and 143 mEQ/L. The TP [2, 13] was 5.4 g/dL and 5.1 g/dL, the Body weight ([2]; oral 200 mg/kg) was 180.37 g and the Body weight ([2]; oral 1000 mg/kg, 1000 mg/kg) was 174.48 g and 178.68 g. For the same compound, the body weight change [3] was “no body weight change due to administration was observed”, the “apoptosis-inducing effects (TUNEL staining)” value [4] was “green-stained cells indicating apoptosis were confirmed” and the “MIC C. albicans” value [5] was >800 µg/mL. For the same compound, the “MIC S. aureus” value ([6]; 24 hours) was 400 µg/mL, the “antimicrobial effects on S. aureus (in words)” value ([6]; from Table 10) was “strong antimicrobial effects” and the “MIC P. aeruginosa” value ([7]; 24 hours) was 400 µg/mL. For the same compound, the “antimicrobial effects on P. aeruginosa (in words)” value ([7]; from Table 10) was “exhibited antimicrobial effects”, the “apoptosis-inducing effects (TUNEL staining)” value [8] was “green-stained cells (FITC positive cells) indicating apoptosis were confirmed” and the “antitumor effects on HSC-2 (cell viability)” value [9] was “exhibit antitumor effects”. For the same compound, the “antitumor effects on MCF-7 (cell viability)” value [10] was “exhibit antitumor effects” and the “antimicrobial effects on S. mutans (turbidity, ATP activity)” value [11] was “strong antimicrobial effects; also recorded: very strong antibacterial activity”.
